Laboratory results reported in PubChem BioAssay (NCI).
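Growth conditions: 96-well plates. Treatment: test compound, 48 hours, 5 concentrations. Analysis: linear interpolation between bracketing concentrations; unreached endpoints set to highest concentration. Here, GI50 denotes the concentration required for 50% inhibition of growth. TGI: concentration producing complete growth inhibition.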

Tests used:
Assay in all cases: growth of human tumour cells (NCI), 48 h
[1] = tested on: U251 CNS
[2] = tested on: HCT-15 colon
[3] = tested on: SR leukemia
[4] = tested on: NCI-H460 lung
[5] = tested on: PC-3 prostate
[6] = tested on: SK-MEL-2 melanoma
[7] = tested on: SK-OV-3 ovarian
[8] = tested on: LOX IMVI melanoma
[9] = tested on: NCI-H522 lung
[10] = tested on: A498 renal

Structure (SMILES) | GI50 [1] [µM] | TGI [1] [µM] | GI50 [2] [µM] | TGI [2] [µM] | GI50 [3] [µM] | TGI [3] [µM] | GI50 [4] [µM] | TGI [4] [µM] | GI50 [5] [µM] | TGI [5] [µM] | GI50 [6] [µM] | TGI [6] [µM] | GI50 [7] [µM] | TGI [7] [µM] | GI50 [8] [µM] | TGI [8] [µM] | GI50 [9] [µM] | TGI [9] [µM] | GI50 [10] [µM] | TGI [10] [µM]
CC(=O)Oc1ccc(C2OC(c3ccc4ccccc4c3OC(C)=O)=NN2C(C)=O)c(OC(C)=O)c1 (stereo not given) | 0.316 | 30.4 | 0.294 | > 68 | 0.198 | > 34.5 | 0.346 | > 36 | 0.448 | > 59.6 | 0.602 | > 48.7 | 0.675 | > 52.3 | 0.301 | 33.8 | 0.369 | 6.22 | 1.73 | 17.5
CC(C)(C)N1CC1CNC(=O)C(=O)NCC1CN1C(C)(C)C (stereo not given) |  | 7.29 |  | 10.5 |  | 13.3 |  | 24.7 |  | > 100 |  | 10.2 |  | 13.4 |  | > 54.1 |  | 2.15 |  | > 6.04
O=C(O)c1ccc(CSc2nc3ccccc3[nH]2)cc1 | > 100 | > 100 | > 100 | > 100 | > 100 | > 100 | > 100 | > 100 | > 100 | > 100 | > 100 | > 100 | > 100 | > 100 | > 100 | > 100 | > 100 | > 100 | > 100 | > 100
NS(=O)(=O)c1ccc(N=Nc2c(O)[nH]c3ccc(C(=O)NCCCn4ccnc4)cc23)cc1 | > 25 | > 25 | > 25 | > 25 | > 25 | > 25 | > 25 | > 25 | > 25 | > 25 | > 25 | > 25 | > 25 | > 25 | > 25 | > 25 | > 25 | > 25 | > 25 | > 25
CCOC(=O)c1c(-c2ccccc2)n2c(=O)cc(C)c3c(O)c(O)cc1c32 | 4.98 | 22.7 | 1.66 | 19.5 | 3.59 | 17.5 | 2.6 | 25.3 | 6.94 | 26 | 4.09 | 41.3 | 16 | > 100 | 4.96 | 22.8 | 3.25 | 11.6 | 13 | 37.6
COc1cc2c(Nc3ccc(-c4ccc(N)cc4)cc3)ncnc2c(OC)c1OC | 7.93 | > 100 | 0.607 | > 85.7 | 5.5 | 84.9 | 2.89 | > 66.4 | 5.46 | > 89.1 | 4.96 | > 78.1 | 46.5 | > 100 | 0.438 | > 100 | 3.15 | > 80.9 | 15.1 | 56
